Results reported in patent publication US11273218B2, “Methods for treating Angelman syndrome and related disorders” (Cavion, Inc., priority 2015, dated 2022).
Read-outs that look alike come from different tables or passages of the source.

Columns and labels:
[1] = test system: UBE3/129sv mice; assay: Audiogenic-induced epilepsy test (Test 1) in Angelman syndrome mouse model; type: in vivo; details: oral gavage for 7 days, AS mice
Protocol: Three separate tests were performed to determine effects of two compounds, mibefradil and MK-8998 on behavioral and physiological deficits and epilepsy in a mouse model for Angelman syndrome. The tests included: audiogenic-induced epilepsy test (Test 1, T1), a battery of motor/behavioral tests (Test 2, T2) and long-term potentiation measurements (LTP, Test 3, T3). Completion of each test provided a quantitative result of mibefradil or MK-8998 effect on this test. For all three tests, 2 separate groups of mice were generated: group 1 for test 1 and group 2 for tests 2 and 3, as shown below in see Table 2 and each group consists of 6 subgroups, a-f.
For all behavioral and electrophysiology experiments female Ube3am^−/p^+KO mice (i.e., AS mice) were crossed with wild-type males, to generate heterozygous AS mice and littermate controls in the F1 hybrid 12952-C57BL/6 background. For epilepsy tests, AS mice are crossed with controls in the 12952/SvPasCrl background. In total, 2 groups of mice are required: group 1 for the epilepsy test (Table 2, group 1a-f) and group 2 for the behavioral test battery and electrophysiology (Table 2, group 2a-f). […] The number of mice used per test/subgroup is indicated in Table 2 and ranges from 5-7 mice/subgroup for electrophysiology, 10 mice/subgroup for epilepsy test, and 12 to 15 mice/subgroup for behavioral test battery. […]

[2] = test system: CaMKIIα; details: striatum, cited from earlier work

CC(C)c1ccc(CC(=O)N[C@H](C)c2ccc(OCC(F)(F)F)cn2)cc1 [MK-8998]
treated animals with seizures eliminated completely ([1]; 60 mg/kg, audiogenic-induced seizures): about 80% | effect on audiogenic-induced seizures (in words) ([1]; 10, 30, 60 mg/kg): eliminated seizures in a dose-dependent manner

[Cl][Ni][Cl] [NiCl2]
decrease of threonine autophosphorylation of CaMKIIα ([2]; 100 μM): 35%

COCC(=O)O[C@]1(CCN(C)CCCc2nc3ccccc3[nH]2)CCc2cc(F)ccc2[C@@H]1C(C)C [mibefradil]
decrease of threonine autophosphorylation of CaMKIIα ([2]; 5 μM): 37%
